# Where two headings read alike, the source gives them in different places.
# Tests used:
# [1] = DPPH radical scavenging (DPPH discolouration); conditions: mean ± sd; half-maximal neutralization of radical DPPH
# Description: (§1) All in vitro radical-scavenging experiments (DPPH, ^•OH/luminol chemiluminescence) and IC50 calculations were assayed as previously described by Parejo et al. Results were expressed as percentage inhibition of DPPH discolouration and luminol chemiluminescence reduction, respectively. The concentration effect (logarithmic curve) obtained for each compound was used to calculate IC50. Serial dilutions of 1–5, and quercetin (used as standard reference) were prepared in MeOH.
# [2] = •OH radical scavenging (luminol chemiluminescence); conditions: mean ± sd
# Description: as §1
# [3] = tested on: H2O2 stressed HaCaT cells; experiment: Intracellular ROS neutralization with DCFH-DA probe in H2O2 stressed HaCaT; type: cell-based; conditions: Homo sapiens, H2O2 100 µM, mean ± sd
# Description: (§2) For measurement of reactive oxygen species neutralization and PGE-2 quantification with Vanda coerulea stem biomarkers, HaCaT cells were seeded in black 96-well microplates (Greiner Bio One 655090) at a concentration of 10^3 cells/well in complemented KSFM with 5% FBS. Microplates were incubated during 24 h (37°C, 5% CO2) before UVB irradiation at 60 mJ/cm^2 and treatment. For western blot analysis HaCaT cells were seeded at a density of 10^6 cells/ 100 mm dishes and incubated during 48 h before irradiation with UVB at 60 mJ/cm^2 (UV Lamp, VL-6LM, Vilber Lourmat) and treatment. All experiments were performed at 90% cell confluency. Cell viability was previously evaluated thanks to XTT analysis according to Roehm NW et al. Serial dilutions of 1–3, were prepared in DMSO (0.1% v/v final concentration). The first higher concentration tested was not cytotoxic (data not shown).
# The DCFH-DA method was used to detect the levels of intracellular ROS [32] DCFH-DA diffuses into cells, where it is hydrolyzed by intracellular esterase to polar 2′,7′-dichlorodihydrofluorescein. This non-fluorescent fluorescein analog is oxidized by intracellular oxidants to a highly fluorescent, 2′,7′-dichlorofluorescein. Tocopherol [Sigma] (25 µM) was used as a positive reference. HaCaT cells were seeded as described and treated with serial dilutions of 1–3 and quercetin (standard reference) after 24 h incubation. Treated microplates were further incubated during 24 h (37°C, 5% CO2). HaCaT cells were washed with phosphate buffer saline (PBS), and DCFH-DA (0.05 mM) was added to the cells. 45 min after incubation, cells were stimulated by a H2O2 solution (100 µM in PBS) to generate an oxidative stress. Immediately after F(T0) and 40 min after stimulation F(T40), DCFH fluorescence was detected at an excitation wavelength of 485 nm and an emission wavelength of 535 nm, using a SpectraFluor Plus spectrofluorometer (Tecan). Two kinds of assay controls were used: negative control was non-stimulated cells and positive control was H2O2 stressed cells (DMSO 0.1% v/v). Results were expressed in percentage of fluorescence inhibition (% of ROS neutralization) calculated by comparison with H2O2 stimulated cells.
# (% of ROS neutralization) = [1- [F(T40)-F(T0)] sample/[F(T40)-F(T0)] positive control] ×100.
# Inhibition percentages were plotted according to compounds 1–3 and quercetin concentrations. Logarithmic regression analysis of the mean replicate values was used to calculate IC50 (Concentration causing half-maximal neutralization of ROS on H2O2 stressed HaCaT)
# [4] = tested on: UVB (60 mJ/cm^2) irradiated HaCaT keratinocytes; experiment: PGE-2 production by UVB irradiated HaCaT (EIA); type: cell-based, human; conditions: for IC50: read-out: IC50 inhibition of HaCaT PGE-2 production
# Description: as §2
# Indomethacin (2.79 µM), a non-steroidal COX inhibitor, was used as a positive reference. Treated microplates were incubated at 37°C, 5% CO2. Untreated irradiated and non irradiated cells (DMSO 0.1% v/v final) were respectively used as positive and negative controls. After 24 h, supernatants were harvested for PGE-2 concentration measurement and BCA assay was realized to determine total cellular protein in each well. PGE-2 concentration was measured using the enzyme immunoassay Parameter™ PGE-2 kit (R&D Systems) according to the manufacturer's instructions. Each PGE-2 quantification (QPGE-2) was reported to total protein concentration per well.
# Results were expressed as inhibition percentage of PGE-2 (I PGE-2) production compared with untreated irradiated cells (positive control).
# I PGE-2 = 100- ((QPGE2) sample/ (QPGE2) positive control) ×100.
# Inhibition percentages were plotted according to compounds 1–3 concentrations. Logarithmic regression analysis of the mean replicate values was used to calculate IC50 (Concentration causing half-maximal Inhibition of irradiated HaCaT PGE-2 production)
# human recombinant COX-2 = biological target: T1, human recombinant COX-2 (Homo sapiens, UniProt P35354); experiment: COX-2 enzyme activity (PGE-2 formation from arachidonic acid); type: biochemical; conditions: for IC50: 2 µM arachidonic acid, mean ± sd, read-out: IC50 inhibition of COX-2 enzyme activity; for inhibition of COX-2 enzyme activity: up to 100 µM
# T1 sequence (P35354 18-604): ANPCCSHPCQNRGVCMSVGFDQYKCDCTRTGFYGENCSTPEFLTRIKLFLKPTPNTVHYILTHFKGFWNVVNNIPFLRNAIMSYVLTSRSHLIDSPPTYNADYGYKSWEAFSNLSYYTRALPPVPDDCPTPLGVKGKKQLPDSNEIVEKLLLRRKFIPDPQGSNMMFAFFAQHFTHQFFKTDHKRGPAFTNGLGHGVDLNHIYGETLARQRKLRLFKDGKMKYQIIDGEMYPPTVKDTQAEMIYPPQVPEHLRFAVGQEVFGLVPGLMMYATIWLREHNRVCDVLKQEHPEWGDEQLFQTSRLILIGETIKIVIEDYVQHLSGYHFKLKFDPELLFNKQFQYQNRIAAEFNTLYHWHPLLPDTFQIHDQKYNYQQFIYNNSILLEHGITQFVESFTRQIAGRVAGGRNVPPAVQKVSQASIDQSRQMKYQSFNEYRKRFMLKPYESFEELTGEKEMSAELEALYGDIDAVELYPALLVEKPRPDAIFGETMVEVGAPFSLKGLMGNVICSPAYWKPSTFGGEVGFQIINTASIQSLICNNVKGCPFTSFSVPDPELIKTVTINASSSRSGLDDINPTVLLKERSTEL
# Description: Serial dilutions of 1–3 were prepared in DMSO. Six concentrations were tested from 0.1 µM to 100 µM for imbricatin (1), from 0.03 to 100 µM for methoxycoelonin (2) and from 0.3 µM to 100 µM for gigantol (3).
# Stilbenoids 1–3, indomethacin and water (negative control) were pre-incubated for 20 min at 22°C with the human recombinant COX-2 enzyme (0.2 µg) in buffer containing 100 mM Tris-HCl (pH 8.0), 2 mM phenol and 1 µM hematine. Thereafter, the reaction was initiated by addition of 2 µM arachidonic acid and the mixture was incubated for 5 min at 22°C. For basal control measurements, arachidonic acid was omitted from the medium. Indomethacin was used as positive inhibitory reference.
# Following incubation, the reaction was stopped by the addition of 1 M HCl then 1 M Tris/HCl (pH 8.0) followed by cooling to 4°C. The amount of PGE-2 present in the reaction mixture was quantified using an EIA detection kit (Cayman Chemical).
# The results were expressed as inhibition percentage of the control enzyme activity:
# 100–[(activity measured in the presence of the compound/control enzyme activity) ×100]
# The IC50 values (concentration causing a half-maximal inhibition of control enzyme activity) and Hill coefficients (nH) were determined by non-linear regression analysis of the inhibition curves generated with mean replicate values using Hill equation curve fitting.
# [5] = cited from earlier work
# [6] = tested on: COX-2 expression in irradiated HaCaT cells; experiment: COX-2 expression by Western blot in UVB irradiated HaCaT; type: cell-based, human; conditions: 2.87 µM, 16 h, COX-2/β-actin vs UVB+
# Description: as §2
# After UVB irradiation 100 mm dishes were treated with stilbenoids 1–3 at 23 µM and 2.87 µM in a serum free medium and incubated during 16 h (37°C, 5% CO2). Untreated irradiated (UVB+) and non irradiated (UVB-) cells were used as positive and negative controls respectively. […] The protein concentration of each sample was determined using a Bradford assay. […] Results were expressed as fold decrease compared to the (UVB+) control. […]
# [7] = tested on: irradiated (UVB 60 mJ/cm2) normal human epidermal keratinocytes (NHEK); experiment: PGE-2 release from UVB irradiated normal human epidermal keratinocytes; type: cell-based; conditions: light or radiation study, vs UVB+ control, read-out: inhibition of PGE-2 production
# Description: Supplementary file pone.0013713.s001.tif: Figure S1 Concentration-dependent effect of stilbenoids (1-3) on PGE-2 release from irradiated (UVB 60 mJ/cm2) normal human epidermal keratinocytes (NHEK). Histogram represents the quantity of PGE-2 produced (PGE-2/ total NHEK proteins pg/µg) according to different treatments. Untreated irradiated (UVB+) and non irradiated (UVB-) NHEK were used as positive and negative controls, respectively. […] Inhibition percentages of PGE-2 release were calculated by comparison with the positive control (UVB+). Values represen mean ± sds calculated with three independent experiments. Treatment groups were compared by using one way analysis of variance ANOVA post-hoc test. Student paired t test was used to compare each stilbenoid effect to the positive control. Statistical significance (*) was set at p<0.05. Significant differences were observed between each biomarker effect. IC50 were calculated with more points than those represented here on the graph. (0.82 MB TIF) Click here for additional data file.
# [8] = Homo sapiens, light or radiation study, UVB 60 mJ/cm^2 irradiated HaCaT, 24 h, mean ± sd
Compound,IC50 [1],IC50 [2],IC50 (human recombinant COX-2),inhibition of COX-2 enzyme activity (human recombinant COX-2),IC50 [3],"IC50 [4, 8]",further results
"Oc1cc2c3c(c1)COc1cc(O)cc(c1-3)CC2 [Flavidin (4), Flavidin]",6.61 ± 1.07 µM,0.076 ± 0.014 µM,–,–,–,–,–
"COc1c(O)cc2c3c1COc1cc(O)cc(c1-3)CC2 [Imbricatin (1), Imbricatin]",8.37 ± 0.61 µM,0.034 ± 0.011 µM,12 ± 1.2 µM,inhibited significantly,8.8 ± 1.7 µM,12.2 ± 2.9 µM,IC50 ([5]; Guo XY et al): 8.8 µM
"COc1cc(O)cc(CCc2ccc(O)c(OC)c2)c1 [Gigantol (3), Gigantol]",14 ± 1.69 µM,0.157 ± 0.039 µM,≥ 100 µM,did not display significant inhibition,20.6 ± 0.5 µM,–,"inhibition of PGE-2 production ([4]; 2.87 µM, UVB irradiated HaCaT): strong inhibition; fold stronger inhibition of PGE-2 production on human HaCaT than on murine macrophage RAW 264.7 ([4]; HaCaT (this work) versus RAW 264.7 (ref 38)): 16 fold; IC50 inhibition of HaCaT PGE-2 production ([4]; UVB 60 mJ/cm^2 irradiated HaCaT, 24 h, mean ± sd): No concentration-dependanteffect; effect on UVB-induced COX-2 expression [6]: did not inhibit; IC50 ([5]; Zhang X et al): 56.4 µM"
"COc1ccc2c(c1)c(CC(=O)O)c(C)n2C(=O)c1ccc(Cl)cc1 [Indomethacin, reference compound]",–,–,–,–,–,2.7 ± 0.7 µM,"inhibition at 2.79 µM ([4]; Homo sapiens, light or radiation study, 2.79 µM, UVB irradiated HaCaT, vs UVB+ control): 54%; inhibition at 2.79 µM [7]: 86%"

# Further compounds by falling IC50 [1], results first:
IC50 [1],IC50 [2],IC50 (human recombinant COX-2),inhibition of COX-2 enzyme activity (human recombinant COX-2),Compound,IC50 [3],"IC50 [4, 8]",further results
9.01 ± 0.93 µM,0.035 ± 0.008 µM,5.8 ± 1.2 µM,inhibited significantly,"COc1cc2c(cc1O)CCc1cc(O)cc(OC)c1-2 [Methoxycoelonin (2), Methoxycoelonin]",9.4 ± 2.1 µM,19.3 ± 3.8 µM,–
8.47 ± 1.58 µM,0.079 ± 0.018 µM,–,–,Coelonin [Coelonin (5)],–,–,IC50 ([5]; Wang J et al): 16.7 µM
2.42 ± 0.65 µM,0.045 ± 0.012 µM,–,–,"O=c1c(O)c(-c2ccc(O)c(O)c2)oc2cc(O)cc(O)c12 [Quercetin, reference compound]",13.8 ± 2.2 µM,–,–

# — PMC2965657, “Antioxidant Biomarkers from Vanda coerulea Stems Reduce Irradiated HaCaT PGE-2 Production as a Result of COX-2 Inhibition” (PLoS ONE, 2010)
